Assay results: US20260262643A1, “HERBICIDAL BENZOXAZINES” (FMC CORPORATION, priority 2022, published 2026)

Experiments:
barnyardgrass [1] = assay: Test C preemergence; format: in vivo, Echinochloa crusgalli; conditions: 0 to 100 scale (0 no effect, 100 complete control)
In short: (§1)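 Soil-applied (pre) and foliar (post, 1–2 leaf, 2–10 cm) sprays; surfactant-containing non-phytotoxic solvent vehicle; loam/sand substrate. Readout: visual % control at 10 d, greenhouse, versus untreated.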

blackgrass [2] = assay: Test C preemergence; format: in vivo, Alopecurus myosuroides; conditions: 0 to 100 scale (0 no effect, 100 complete control)
In short: as §1

corn [3] = assay: Test C preemergence; format: in vivo, Zea mays; conditions: 0 to 100 scale (0 no effect, 100 complete control)
In short: as §1

green foxtail [4] = assay: Test C preemergence; format: in vivo, Setaria viridis; conditions: 0 to 100 scale (0 no effect, 100 complete control)
In short: as §1

kochia [5] = assay: Test C preemergence; format: in vivo, Bassia scoparia; conditions: Preemergence, 500 g ai/ha; visual rating after 10 days, 0 to 100 scale (0 no effect, 100 complete control)
In short: as §1

oat, wild [6] = assay: Test C preemergence; format: in vivo, Avena fatua; conditions: 0 to 100 scale (0 no effect, 100 complete control)
In short: as §1

pigweed, palmer [7] = assay: Test C preemergence; format: in vivo, Amaranthus palmeri; conditions: 0 to 100 scale (0 no effect, 100 complete control)
In short: as §1

ragweed [8] = assay: Test C preemergence; format: in vivo, Ambrosia artemisiifolia; conditions: 0 to 100 scale (0 no effect, 100 complete control)
In short: as §1

ryegrass, Italian [9] = assay: Test C preemergence; format: in vivo, Lolium multiflorum; conditions: 0 to 100 scale (0 no effect, 100 complete control)
In short: as §1

soybean [10] = assay: Test C preemergence; format: in vivo, Glycine max; conditions: 0 to 100 scale (0 no effect, 100 complete control)
In short: as §1

wheat [11] = assay: Test C preemergence; format: in vivo, Triticum aestivum; conditions: 0 to 100 scale (0 no effect, 100 complete control)
In short: as §1

barnyardgrass [12] = assay: Test C postemergence; format: in vivo, Echinochloa crusgalli; conditions: 10 days
In short: as §1

blackgrass [13] = assay: Test C postemergence; format: in vivo, Alopecurus myosuroides; conditions: 10 days
In short: as §1

corn [14] = assay: Test C postemergence; format: in vivo, Zea mays; conditions: 10 days
In short: as §1

green foxtail [15] = assay: Test C postemergence; format: in vivo, Setaria viridis; conditions: 10 days
In short: as §1

kochia [16] = assay: Test C postemergence; format: in vivo, Bassia scoparia; conditions: 10 days
In short: as §1

oat, wild [17] = assay: Test C postemergence; format: in vivo, Avena fatua; conditions: 10 days
In short: as §1

pigweed, palmer [18] = assay: Test C postemergence; format: in vivo, Amaranthus palmeri; conditions: 10 days
In short: as §1

ragweed [19] = assay: Test C postemergence; format: in vivo, Ambrosia artemisiifolia; conditions: 10 days
In short: as §1

ryegrass, Italian [20] = assay: Test C postemergence; format: in vivo, Lolium multiflorum; conditions: 10 days
In short: as §1

soybean [21] = assay: Test C postemergence; format: in vivo, Glycine max; conditions: 10 days
In short: as §1

wheat [22] = assay: Test C postemergence; format: in vivo, Triticum aestivum; conditions: 10 days
In short: as §1

galium = assay: Test C postemergence; format: in vivo, Galium aparine; conditions: 10 days
In short: as §1

horseweed = assay: Test C postemergence; format: in vivo, Erigeron canadensis; conditions: 10 days
In short: as §1

barnyardgrass [23] = assay: Test D flooded paddy test; format: in vivo, Echinochloa crus-galli; conditions: 250 g ai/ha, applied to paddy water, visual rating after 13 to 14 days, scale 0 to 100 (0 no effect, 100 complete control)
In short: (§2)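 Plants grown to the 2-leaf stage; pots flooded to 3 cm above soil at treatment and held at that depth throughout. Test compounds applied directly to the paddy water. After 13 to 14 days in a greenhouse, response was rated visually versus controls on a 0 (no effect) to 100 (complete control) scale.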

ducksalad = assay: Test D flooded paddy test; format: in vivo, Heteranthera limosa; conditions: 250 g ai/ha, applied to paddy water, visual rating after 13 to 14 days, scale 0 to 100 (0 no effect, 100 complete control)
In short: as §2

rice = assay: Test D flooded paddy test; format: in vivo, Oryza sativa; conditions: 250 g ai/ha, applied to paddy water, visual rating after 13 to 14 days, scale 0 to 100 (0 no effect, 100 complete control)
In short: as §2

sedge, umbrella = assay: Test D flooded paddy test; format: in vivo, Cyperus difformis; conditions: 250 g ai/ha, applied to paddy water, visual rating after 13 to 14 days, scale 0 to 100 (0 no effect, 100 complete control)
In short: as §2

[24] = Preemergence, 500 g ai/ha, visual rating after 10 days
[25] = Test C, preemergence, 125 g ai/ha
[26] = 125 g ai/ha, postemergence, 0 to 100 scale, 0 no effect, 100 complete control
[27] = Postemergence, 500 g ai/ha, visual 0 to 100 scale (0 no effect, 100 complete control)

COC[C@H]1CN(C(=O)c2cc(-n3cncn3)ccc2C)c2cccc(Cl)c2O1 [Compound 263]
Plant response rating, Barnyardgrass (barnyardgrass [1]; [24]): 90 | Barnyardgrass plant response rating (barnyardgrass [1]; [25]): 70 | Plant response rating, Blackgrass (blackgrass [2]; [24]): 90 | Blackgrass plant response rating (blackgrass [2]; [25]): 50 | Plant response rating, Corn (corn [3]; [24]): 60 | Corn plant response rating (corn [3]; [25]): 20 | Plant response rating, Foxtail, Green (green foxtail [4]; [24]): 100 | Foxtail, Green plant response rating (green foxtail [4]; [25]): 90 | Plant response rating, Kochia (kochia [5]): 70 | Plant response rating, Oat, Wild (oat, wild [6]; [24]): 70 | Oat, Wild plant response rating (oat, wild [6]; [25]): 30 | Plant response rating, Pigweed, Palmer (pigweed, palmer [7]; [24]): 100 | Pigweed, Palmer plant response rating (pigweed, palmer [7]; [25]): 70 | Plant response rating, Ragweed (ragweed [8]; [24]): 30 | Ragweed plant response rating (ragweed [8]; [25]): 0 | Plant response rating, Ryegrass, Italian (ryegrass, Italian [9]; [24]): 90 | Ryegrass, Italian plant response rating (ryegrass, Italian [9]; [25]): 80 | Plant response rating, Soybean (soybean [10]; [24]): 90 | Soybean plant response rating (soybean [10]; [25]): 80 | Plant response rating, Wheat (wheat [11]; [24]): 40 | Wheat plant response rating (wheat [11]; [25]): 20 | Plant response rating, Barnyardgrass (barnyardgrass [12]; [26]): 70 | Plant response rating, Barnyardgrass (barnyardgrass [12]; [27]): 90 | Plant response rating, Blackgrass (blackgrass [13]; [26]): 80 | Plant response rating, Blackgrass (blackgrass [13]; [27]): 90 | Plant response rating, Corn (corn [14]; [26]): 30 | Plant response rating, Corn (corn [14]; [27]): 90 | Plant response rating, Foxtail, Green (green foxtail [15]; [26]): 80 | Plant response rating, Foxtail, Green (green foxtail [15]; [27]): 90 | Plant response rating, Kochia (kochia [16]; [26]): 70 | Plant response rating, Kochia (kochia [16]; [27]): 70 | Plant response rating, Oat, Wild (oat, wild [17]; [26]): 10 | Plant response rating, Oat, Wild (oat, wild [17]; [27]): 50 | Plant response rating, Pigweed, Palmer (pigweed, palmer [18]; [26]): 40 | Plant response rating, Pigweed, Palmer (pigweed, palmer [18]; [27]): 80 | Plant response rating, Ragweed (ragweed [19]; [26]): 40 | Plant response rating, Ragweed (ragweed [19]; [27]): 90 | Plant response rating, Ryegrass, Italian (ryegrass, Italian [20]; [26]): 80 | Plant response rating, Ryegrass, Italian (ryegrass, Italian [20]; [27]): 90 | Plant response rating, Soybean (soybean [21]; [26]): 100 | Plant response rating, Soybean (soybean [21]; [27]): 100 | Plant response rating, Wheat (wheat [22]; [26]): 30 | Plant response rating, Wheat (wheat [22]; [27]): 80 | Plant response rating, Galium (galium; [26]): 100 | Plant response rating, Galium (galium; [27]): 100 | Plant response rating, Horseweed (horseweed; [26]): 0 | Plant response rating, Horseweed (horseweed; [27]): 20 | Plant response rating, Barnyardgrass (Flood) (barnyardgrass [23]): 20 | Plant response rating, Ducksalad (Flood) (ducksalad): 65 | Plant response rating, Rice (Flood) (rice): 0 | Plant response rating, Sedge, Umbrella (Flood) (sedge, umbrella): 85
